Source: ChEMBL document CHEMBL2401685 (Bioorg Med Chem Lett, 2013)
Active and inactive are the calls of the source. The calls are words filed in the database; no cut-off is given here.

Assays:
[1] = biological target: T1, 11-beta-hydroxysteroid dehydrogenase 1 (Homo sapiens, UniProt P28845); assay: Ratio of curcumin IC50 to compound IC50 for human 11beta-HSD1 transfected in CHOP cells; format: cell-based
Target sequence in this assay (P28845 whole entry, looked up): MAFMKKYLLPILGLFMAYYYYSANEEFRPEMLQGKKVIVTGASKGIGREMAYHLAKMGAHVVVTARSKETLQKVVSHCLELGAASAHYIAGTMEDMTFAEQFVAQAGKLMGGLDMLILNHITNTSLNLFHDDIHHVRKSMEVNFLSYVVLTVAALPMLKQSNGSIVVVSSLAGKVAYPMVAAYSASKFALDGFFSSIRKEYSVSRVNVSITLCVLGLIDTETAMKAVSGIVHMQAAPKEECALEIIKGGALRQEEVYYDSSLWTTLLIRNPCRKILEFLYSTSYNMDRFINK

[2] = biological target: T2, 11-beta-hydroxysteroid dehydrogenase type 2 (Rattus norvegicus) (UniProt P50233); assay: Inhibition of 11beta-HSD2 in rat kidney microsomes using [3H]-CORT as substrate assessed as formation of 11-DHC at 100 uM after 30 mins by radiometric analysis relative to control; conditions: Microsome
T2 sequence (whole entry): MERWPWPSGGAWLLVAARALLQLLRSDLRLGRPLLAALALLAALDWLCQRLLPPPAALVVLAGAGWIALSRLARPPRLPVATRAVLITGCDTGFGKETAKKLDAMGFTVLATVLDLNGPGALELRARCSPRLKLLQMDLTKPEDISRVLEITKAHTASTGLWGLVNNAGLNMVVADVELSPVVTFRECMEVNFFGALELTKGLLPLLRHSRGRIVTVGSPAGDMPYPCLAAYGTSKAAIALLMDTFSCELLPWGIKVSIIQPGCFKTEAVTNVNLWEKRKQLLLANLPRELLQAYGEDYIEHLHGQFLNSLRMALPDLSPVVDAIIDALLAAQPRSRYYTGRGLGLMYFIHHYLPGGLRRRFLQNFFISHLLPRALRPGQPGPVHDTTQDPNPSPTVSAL

[3] = biological target: T3, 11-beta-hydroxysteroid dehydrogenase 1 (Rattus norvegicus, UniProt P16232); assay: Inhibition of 11beta-HSD1 in rat testis microsomes using [3H]-11-DHC as substrate assessed as formation of CORT after 60 to 90 mins by radiometric analysis; set-up: species or system Microsome
[4] = biological target: T1, 11-beta-hydroxysteroid dehydrogenase 1; assay: Inhibition of 11beta-HSD1 in human liver microsomes using [3H]-cortisone as substrate assessed as formation of cortisol after 60 to 90 mins by radiometric analysis; set-up: species or system Microsome
Target sequence in this assay (P28845 whole entry): as the sequence (P28845 whole entry, looked up) above

J774.A1 = assay: (§1) Antiinflammatory activity in mouse J774A1 cells assessed as LPS-induced TNFalpha production at 10 uM incubated 2 hrs prior to LPS challenge measured after 24 hrs by ELISA relative to vehicle-treated control; format: functional
[5] = biological target: T3, 11-beta-hydroxysteroid dehydrogenase 1; assay: Inhibition of 11beta-HSD1 in Sprague-Dawley rat leydig cells […]
[6] = biological target: T4, 11-beta-hydroxysteroid dehydrogenase type 2 (Homo sapiens) (UniProt P80365); assay: (§2) Inhibition of 11beta-HSD2 in human kidney microsomes using [3H]-cortisol as substrate assessed as formation of cortisone at 100 uM after 30 mins by radiometric analysis relative to control; conditions: Microsome
T4 sequence (whole entry): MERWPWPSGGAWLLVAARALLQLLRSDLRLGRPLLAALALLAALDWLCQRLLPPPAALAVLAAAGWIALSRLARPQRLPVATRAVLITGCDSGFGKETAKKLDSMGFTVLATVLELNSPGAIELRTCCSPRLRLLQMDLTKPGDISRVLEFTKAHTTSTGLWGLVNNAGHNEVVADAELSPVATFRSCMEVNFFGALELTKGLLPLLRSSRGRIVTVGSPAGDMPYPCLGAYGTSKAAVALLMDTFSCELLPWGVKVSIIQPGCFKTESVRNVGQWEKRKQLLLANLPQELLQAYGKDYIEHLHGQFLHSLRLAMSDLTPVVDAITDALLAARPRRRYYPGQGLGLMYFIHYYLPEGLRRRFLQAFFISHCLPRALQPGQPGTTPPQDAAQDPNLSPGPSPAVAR

[7] = biological target: T1, 11-beta-hydroxysteroid dehydrogenase 1; assay: Inhibition of human 11beta-HSD1 transfected in CHOP cells; format: cell-based
Target sequence in this assay (P28845 whole entry): as the sequence (P28845 whole entry, looked up) above

[8] = biological target: 11-beta-hydroxysteroid dehydrogenase 1 (Rattus norvegicus) (UniProt P16232); assay: Inhibition of 11beta-HSD1 in Sprague-Dawley rat leydig cells […] relative to control; conditions: 100 uM
[9] = biological target: T1, 11-beta-hydroxysteroid dehydrogenase 1; assay: Inhibition of human 11beta-HSD1 transfected in CHOP cells at 100 uM relative to control; format: cell-based
Target sequence in this assay (P28845 whole entry, looked up): as the sequence (P28845 whole entry, looked up) above

[10] = biological target: T1, 11-beta-hydroxysteroid dehydrogenase 1; assay: Inhibition of 11beta-HSD1 in human liver microsomes using [3H]-cortisone as substrate assessed as formation of cortisol at 100 uM after 60 to 90 mins by radiometric analysis relative to control; conditions: Microsome
Target sequence in this assay (P28845 whole entry, looked up): as the sequence (P28845 whole entry, looked up) above

[11] = as §1; format: functional; conditions: J774.A1
[12] = biological target: 11-beta-hydroxysteroid dehydrogenase 1 (Rattus norvegicus) (UniProt P16232); assay: Inhibition of 11beta-HSD1 in rat testis microsomes using [3H]-11-DHC as substrate assessed as formation of CORT at 100 uM after 60 to 90 mins by radiometric analysis relative to control; conditions: Microsome
[13] = biological target: T5, 11-beta-hydroxysteroid dehydrogenase type 2 (Homo sapiens, UniProt P80365); assay: as §2; set-up: species or system Microsome
T5 sequence (P80365 whole entry): T4 sequence (whole entry)

[14] = Cytotoxicity against CHOp cells; format: cell-based, Cricetulus griseus; conditions: chinese hamster
[15] = Cytotoxicity against rat leydig cells; format: cell-based
[16] = biological target: T1, 11-beta-hydroxysteroid dehydrogenase 1; assay: Competitive inhibition of 11beta-HSD1 in human liver microsomes at 1 to 10 uM by Lineweaver-burk plot analysis in presence of cortisone; conditions: Microsome
Target sequence in this assay (P28845 whole entry, looked up): as the sequence (P28845 whole entry, looked up) above

T3 sequence (P16232 whole entry): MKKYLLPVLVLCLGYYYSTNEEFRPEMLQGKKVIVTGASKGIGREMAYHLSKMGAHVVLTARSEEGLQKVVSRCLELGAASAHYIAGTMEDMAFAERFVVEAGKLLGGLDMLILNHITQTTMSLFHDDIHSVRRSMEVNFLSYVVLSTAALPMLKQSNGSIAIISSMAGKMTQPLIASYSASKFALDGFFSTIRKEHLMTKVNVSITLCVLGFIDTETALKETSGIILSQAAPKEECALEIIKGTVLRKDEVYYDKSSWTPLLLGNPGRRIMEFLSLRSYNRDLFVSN
Chain of 11-beta-hydroxysteroid dehydrogenase 1 (Rattus norvegicus) (P16232 whole entry, looked up): as the sequence (P16232 whole entry) above

Ratio IC50 [1] | inhibition [2] [%] | IC50 [3] [µM] | IC50 [4] [µM] | IC50 [5] [µM] | inhibition [6] [%] | IC50 [7] [µM] | inhibition [8] [%] | inhibition [9] [%] | inhibition [10] [%] | inhibition [12] [%] | IC50 [13] [µM] | inhibition [16] | Structure (SMILES) | inhibition (J774.A1) | inhibition at 10 µM [11] [%] | Activity [14] | Activity [15]
9 | 16 | 13.5 | 2.97 | 1.11 | 24 | 0.263 | – | – | – | – | – | – | O=C1/C(=C/c2ccc(F)cc2)CCC/C1=C\c1ccc(F)cc1 | inactive | – | – | –
9 | 9 | 22 | 17.4 | 3.47 | 26 | 0.31 | – | – | – | – | – | – | O=C1/C(=C/c2ccc(F)cc2)CC/C1=C\c1ccc(F)cc1 | inactive | – | – | –
– | 10 | – | – | – | 6 | – | 27 | 14 | 14 | 0 | – | – | CCOc1ccc(/C=C2\CC/C(=C\c3ccc(OCC)cc3)C2=O)cc1 | – | < 50 | – | –
– | – | 4.12 | 16 | 3.92 | – | 4.5 | – | – | – | – | 15.7 | – | COc1cc(/C=C/C(=O)CC(=O)/C=C/c2ccc(O)c(OC)c2)ccc1O [CURCUMIN] | inactive | – | – | –
9 | 39 | 0.288 | 0.529 | 0.129 | 53 | 0.115 | – | – | – | – | – | Active | O=C(/C=C/c1ccccc1Br)/C=C/c1ccccc1Br | – | > 50 | Non-toxic | Non-toxic
9 | 39 | 0.218 | 1.11 | 0.148 | 33 | 0.346 | – | – | – | – | – | – | O=C1/C(=C/c2ccccc2Br)CCC/C1=C\c1ccccc1Br | – | > 50 | Non-toxic | Non-toxic
